Values after ≈ are worked out from the molar mass of the structure shown. “Also recorded” adds a separate entry of the source. Residues, ends and D or L forms follow the SMILES beside them.

The test system of one test is L. lactis IL1403. Kind of test: MIC of synthetic AMPs, liquid growth inhibition microdilution assay. As to conditions: synthetic peptide; for L. lactis growth inhibition: all concentrations tested (up to 1 mg/ml). Format: cell-based, Lactococcus lactis. Here is the method: (§1) MICs of the synthetic AMPs were determined in triplicate by a liquid growth inhibition microdilution assays in flat-bottom sterile polypropylene 96-well plates (Maxisorp, Nunc, Roskilde, Denmark), in a final volume of 150 μl. The bacteria were diluted 2% in fresh media and grown to an OD600=0.5±0.05 (OD600=1≈10^9 cells/ml). The cells were diluted 50-fold to 10^7 cells/ml in fresh media. The AMP stocks were serially diluted (150 μl/well) in liquid growth media in a 96-well plate, covering a concentration range of 1,000 μg/ml-1 ng/ml. Briefly, 150 μl of the serially diluted AMPs were inoculated with 5 μl of the bacterial strains to achieve a final indicator concentration of 3×10^5 cells/ml. For each strain a row with no peptide was included as growth control, and for each test a row of medium-only wells was included as a sterility control. Plates were then incubated at 37° C. for 16-20 h without shaking, and growth inhibition was assessed measuring OD600 using a microplate reader (SpectraMax® Plus384; Molecular Devices, Sunnyvale, Calif., USA). MICs were identified as the lowest antimicrobial concentration where the OD600 […].

For another test, the system named is Salmonella. Kind of test: Antimicrobial activity of supernatants from recombinant L. lactis (CFU/ml and OD600). Type of test: cell-based. Here is the method:
(§2) The loss of cell viability was monitored to determine the antimicrobial activity of the supernatants from the recombinant L. lactis strains. Briefly, 0.3 ml of fresh medium, individually inoculated with the target strains, was added to tubes containing 0.7 ml of the supernatants, to reach a final concentration of 1×10^3 cells/ml. As a control, a supernatant sample from the L. lactis strain containing only the expression vector pMSP3545 (C-SN) was used. Tubes were incubated at 37° C. with agitation. Samples were taken at 30 min, 2 and 6 h, and the number of colony forming units per ml (CFU/ml) was determined by plating 25 μl on LB agar plates. The plates were incubated for 16 h at 37° C., and the number of viable cells was assessed by counting CFUs. Additionally, the OD600 was monitored up to 15 h post-inoculation to follow the influence of AMPs on culture growth.
(§3) Growth of pathogenic and non-pathogenic E. coli strains was assessed in medium containing these AMP-SNs while only pathogenic Salmonella strains were tested. In all cases, AMP-SNs diluted 7:3 with LB were inoculated with each indicator strain and growth was monitored spectrophotometrically at 600 nm for 15 hr.

The next test relates to S. infantis. Kind of test: Antimicrobial activity of supernatants from recombinant L. lactis (culture titer). Type of test: cell-based, Salmonella infantis. As to conditions: FIG. 3a; by 2 h post-inoculation. Here is the method:
as §2, §3

The test system of the next test is S. typhimurium. The description is as above. Format: cell-based, Salmonella typhimurium. The following applies: FIG. 3a; by 2 h post-inoculation. Here is the method:
as §2, §3

The test system of test [1] is E. coli. Type of test: cell-based, Escherichia coli. On the procedure:
as §1

Test [2] has as its system E. coli. Kind of test: Antimicrobial activity of supernatants from recombinant L. lactis (CFU/ml and OD600). Format: cell-based, Escherichia coli. As to conditions: 6 h post-inoculation; supernatant of recombinant L. lactis; pathogenic and non-pathogenic E. coli. On the procedure: as §2, §3

With `CC(C)C[C@H](NC(=O)[C@H](Cc1ccc(O)cc1)NC(=O)[C@@H]1CCCN1C(=O)[C@H](CCCNC(=N)N)NC(=O)[C@@H]1CCCN1C(=O)[C@H](CCCCN)NC(=O)[C@H](CC(=O)O)NC(=O)[C@@H]1CCCN1C(=O)[C@@H](N)CCCNC(=N)N)C(=O)N1CCC[C@H]1C(=O)N[C@@H](CCCNC(=N)N)C(=O)N1CCC[C@H]1C(=O)N[C@@H](CCCNC(=N)N)C(=O)N1CCC[C@H]1C(=O)N1CCC[C@H]1C(=O)N[C@@H](CCCNC(=N)N)C(=O)N1CCC[C@H]1C(=O)N[C@H](C(=O)N[C@@H](CCCNC(=N)N)C(=O)O)C(C)C` [A3APO, A3APO (single chain)] (H-RPDKPRPYLPRPRPPRPVR-OH; N-terminus and C-terminus assumed), the “L. lactis growth inhibition” value in the test with L. lactis IL1403 is given as “not inhibited; also recorded: not achieved”. Further, the “Salmonella growth inhibition at longer times” value in the test on Salmonella (10-15 h post-inoculation, versus C-SN) is “not observed”. Besides, in the test with S. infantis, the “S. infantis culture density reduction relative to C-SN” value came to 20 fold. Besides, in the test with S. typhimurium, the “S. typhimurium culture density reduction relative to C-SN” value is 4 fold.
For `CC[C@H](C)[C@H](NC(=O)CNC(=O)[C@H](CCCCN)NC(=O)[C@@H](NC(=O)[C@H](CC(C)C)NC(=O)[C@H](CO)NC(=O)CNC(=O)[C@H](CC(C)C)NC(=O)CNC(=O)[C@H](C)NC(=O)[C@H](CCCCN)NC(=O)[C@H](Cc1ccccc1)NC(=O)[C@@H](NC(=O)[C@H](CC(=O)O)NC(=O)[C@H](CCCCN)NC(=O)[C@H](CC(C)C)NC(=O)CN)[C@@H](C)CC)C(C)C)C(=O)N[C@@H](C)C(=O)N[C@@H](C)C(=O)N[C@@H](Cc1c[nH]cn1)C(=O)N[C@H](C(=O)N[C@@H](C)C(=O)N[C@@H](CC(N)=O)C(=O)O)C(C)C` [Alyteserin, Alyteserin-1a] (H-GLKDIFKAGLGSLVKGIAAHVAN-OH; N-terminus and C-terminus assumed), the “MIC against indicator E. coli strains” value with E. coli [1] is 500 µg/mL (≈ 219 µM). Moreover, the “L. lactis growth inhibition” value in the test on L. lactis IL1403 is reported as “not achieved”. Further, the “Concentration up to which L. lactis remained viable” value with L. lactis IL1403 (highest concentration tested) was over 1 mg/mL. In addition, the “E. coli culture density/concentration reduction relative to C-SN” value with E. coli [2] stood at 20 fold. Further, the “Salmonella growth (rate) reduction relative to C-SN” value with Salmonella (10 to 15 h post-inoculation) came to 15%. Moreover, the “S. infantis culture density/growth reduction relative to C-SN (fraction)” value in the test on S. infantis is recorded as “about one-half”. For the same compound, the “S. typhimurium culture density reduction relative to C-SN” value in the test with S. typhimurium was 10 fold.

Values taken from patent US10813956B2, “Methods for making and using antimicrobial peptides” (REGENTS OF THE UNIVERSITY OF MINNESOTA, priority 2012, dated 2020).
